The target of one data set is T1, Human squalene epoxidase (Homo sapiens, UniProt Q14534).
T1 construct: The resultant supernatant is used as the squalene epoxidase fraction in the later-described test; endogenous in cells; host or cells: Hep-G2 human hepatoma cells (microsomes solubilized with Triton X-100)
Kind of data set: Human squalene epoxidase inhibition action. Type of data set: biochemical. The settings on record: solubilized Hep-G2 microsome fraction, 8 μM 3H-squalene, 37° C., 60 minutes, read-out: Inhibition rate at 3 μM concentration. On the procedure: Squalene epoxidase inhibition action
(1) Preparation of squalene epoxidase
Human squalene epoxidase is prepared in accordance with the process disclosed in J. Biol. Chem., 245, 1670 (1970); ibid., 250, 1572 (1975).
Namely, human hepatoma (Hep-G2) cells are cultured at 37° C. under air containing 5% carbon dioxide. After completion of the culture, the cells are scraped and collected by centrifugation. The cells are suspended in 0.1M Tris-HCl buffer (pH 7.5) (1×10^8 cells/ml), the suspension is homogenized and centrifuged at 9750 Xg for 10 minutes, and then the sediment is washed with 0.1M Tris-HCl buffer (pH 7.5) and centrifuged at 105,000 Xg for 1 hour. The resultant microsome is suspended in 0.1M Tris-HCl buffer (pH 7.5) so that the protein amount becomes 20 mg/ml, and solubilized by stirring the suspension under ice cooling in the presence of 1% Triton X-100. After this solubilization treatment, the concentration of Triton X-100 is diluted to 0.125% with 1 mM EDTA and 1 mM dithiothreitol, and the dilution is centrifuged at 105,000 Xg for 1 hour. The resultant supernatant is used as the squalene epoxidase fraction in the later-described test.
(2) Assay of squalene epoxidase activity
Assay of human squalene epoxidase activity is carried out according to the method disclosed in J. Biol. Chem., 245, 1670 (1970).
Namely, 3 μl of a dimethyl sulfoxide solution of a test chemical is added to a solution consisting of 0.2 ml of the squalene epoxidase fraction [protein amount 0.4 mg, 0.1% Triton X-100, […] Tris-HCl buffer (pH 7.5)] prepared in (1), 100 μM FAD, 1 mM NADPH, 1 mM EDTA and 8 μM ^3 H-squalene-Tween 80 suspension to make the total volume 0.3 ml, and the mixture is subjected to reaction with shaking at 37° C. for 60 minutes. 0.3 ml of 10% potassium hydroxide-methanol solution is added to discontinue the reaction, and the mixture is heated at 75° C. for 1 hour. Then the non-saponified substance is extracted with petroleum ether and the extract is concentrated to dryness under a nitrogen stream. The resultant residue is dissolved in a small amount of ethyl ether, pre-coated Silicagel TCL is spotted with the extract, and development is carried out with benzeneethyl acetate (99.5:0.5). The position of the ^3 H-squalene-2,3 -epoxide in the TLC is confirmed using ergosterol acetate as a marker, and the ^3 H-squalene-2,3-epoxide portion in the TLC is cut out. The TLC piece is immersed in a toluene series scintillator and measurement is made using a liquid scintillation counter. Thereby, the inhibition rates (%) against squalene epoxidase at 3 μM concentration of compounds of this invention are determined, and the results are shown in the following Table 1.

The subject of the next data set is rats (SD male). Kind of data set: Subacute toxicity test. Type of data set: in vivo, rat (SD male). The settings on record: 300 mg/kg per day oral for 7 days, 3 animals per group, 0.5% aqueous methylcellulose suspension. The protocol: Subacute toxicity test example
The compound of Example 34 was suspended in 0.5% aqueous methylcellulose solution and orally administered to groups of rats (SD male), each group consisting of 3 animals, at a rate of 300 mg/kg per day for 7 days.

The next data set concerns cholesterol biosynthesis. Kind of data set: Inhibition test of in vivo cholesterol biosynthesis in rat. Set-up: species or system rat (female SD). The settings on record: 3 mg/kg oral, n = 5, rat. On the procedure: Inhibition test of in vivo cholesterol biosynthesis
In this in vivo test, female SD rats (5 weeks old) are used. The rats are raised for 9 days under an environment where illumination is applied with reversed day and night (dark from 6 a.m. to 6 p.m.), and meanwhile they can freely ingest a solid feed and water. A test chemical is orally administered two hours before dark 6 o'clock when cholesterol biosynthesis becomes maximum. The compound is dissolved in a middle-chain fatty acid triglyceride, and orally administered at 3 mg/kg in an amount of 0.5 ml/100 g body weight. Further, the same volume of the solvent (vehicle) used is administered to control animals. […] after the administration of the test chemical, 20μ Ci/100 g body weight of ^14 C-sodium acetate (56 m Ci/m mole) is intraperitoneally administered to the rats, respectively. At dark 6 o'clock blood is sampled from the abdominal artery of each animal under ether anesthesia and centrifuged to separate the plasma.
2 ml of 15% potassium hydroxide-methanol solution is added per ml of the plasma, and the mixture is heated at 75° C. for 3 hours to carry out saponification. Each sample is extracted twice, each time with 2 ml of petroleum ether, and the extract is washed with 2 ml of distilled water. Finally each extract is evaporated to dryness under a nitrogen stream.
The resultant residue is dissolved in a small amount of ethyl ether, and a pre-coated silica gel TLC is spotted with the total amount of the solution. This plate is developed with a solvent system of hexane/ethyl ether/acetic acid (85:15:4). Coloring is carried out with iodine, and radioactivity at the cholesterol part is assayed using a liquid scintillation counter.
The results (Table 2) are expressed by dpm values of produced ^14 C-cholesterol existing in 1 ml of each plasma. Further, the inhibition of cholesterol biosynthesis is calculated by comparing the amounts of ^14 C-cholesterol biosynthesis between the test groups and the control group.

The record followed here is patent US5444084A, “Substituted heterocyclic derivative having squalene epoxidase inhibition action and its use” (Banyu Pharmaceutical Co., Ltd., priority 1992, dated 1995).

T1 sequence (Q14534 whole entry): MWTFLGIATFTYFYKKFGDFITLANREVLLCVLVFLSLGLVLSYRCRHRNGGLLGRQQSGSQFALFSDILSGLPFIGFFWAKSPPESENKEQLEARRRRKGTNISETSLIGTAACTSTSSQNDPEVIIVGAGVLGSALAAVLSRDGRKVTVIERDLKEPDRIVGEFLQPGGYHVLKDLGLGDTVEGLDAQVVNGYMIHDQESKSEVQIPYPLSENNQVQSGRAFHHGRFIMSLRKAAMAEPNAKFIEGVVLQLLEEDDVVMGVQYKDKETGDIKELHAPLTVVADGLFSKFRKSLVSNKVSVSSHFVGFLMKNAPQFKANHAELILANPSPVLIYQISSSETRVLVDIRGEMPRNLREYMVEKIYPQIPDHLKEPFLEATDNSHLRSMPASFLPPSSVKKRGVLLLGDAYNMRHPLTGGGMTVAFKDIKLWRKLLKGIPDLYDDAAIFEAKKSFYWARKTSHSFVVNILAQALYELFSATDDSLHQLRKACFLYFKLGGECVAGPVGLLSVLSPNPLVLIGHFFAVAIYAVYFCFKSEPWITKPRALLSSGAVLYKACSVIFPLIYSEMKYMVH

With `COCC(C/C=C/C#CC(C)(C)C)Cc1cccc(/C=C/c2cccc(-c3ccsc3)c2)c1` (stereo not shown) [Example 34, (E,E)-3-[3-[2-[3-(2-methoxymethyl-8,8-dimethyl-4-nonen-6-ynyl)phenyl]ethenyl]phenyl]thiophene], the inhibition at 3 µM on Human squalene epoxidase amounted to 100%. The “death and other toxic symptoms” value in the data set on rats (SD male) was “death and other toxic symptoms were not observed at all”. For the same molecule, in the data set with cholesterol biosynthesis (dpm of produced 14C-cholesterol in 1 ml of plasma, control values 2282-3218 dpm), the “14C-cholesterol, dpm” value is 347 dpm. Besides, in the data set with cholesterol biosynthesis (versus control group), the “Cholesterol biosynthesis inhibition rate” value is 85%.
